“Also recorded” adds a separate entry of the source.
Test: Phase 1 multidose pharmacokinetic study: total EPA in plasma (LC-MS/MS)
Format: in vivo, human
Details: for Total EPA in plasma, CL/F: day 28; for mean plasma CL/F of ethyl eicosapentaenoate: human
Description: A study to characterize the pharmacokinetics of ethyl eicosapentaenoate in plasma and red blood cells after multiple-dose administration of IPE at 2 g per day and 4 g per day was performed in healthy adult male and female humans.
The study was a phase 1, open-label, randomized, multidose study in healthy, nonsmoking men and women aged>18 and ≤55 years with a body mass index (BMI)>18 and ≤30 kg/m′. Exclusion criteria included use within 6 weeks prior to randomization through study end of any lipid-altering medications or supplements, including statins, niacin at levels of greater than 200 mg/day, fibrates, ezetimibe, bile acid sequestrants, omega-3 fatty acid medications, and supplements or foods enriched with omega-3 fatty acids (no more than 2 servings of fish per week were permitted).
Following a 14-day screening period, subjects entered a 28-day treatment period and were randomized to one of four IPE dose regimen treatment groups as shown in FIG. 1. Group 1 received IPE 2 g daily (1000-mg capsules; twice-daily [BID] regimen); Group 2 received IPE 4 g daily (1000-mg capsules; BID regimen); Group 3 received IPE 2 g daily (1000-mg capsules; once-daily [QD] regimen); and Group 4 received IPE 2 g daily (500-mg capsules; BID regimen). Treatment was administered orally, with or following a meal in the morning and evening for BID regimens, or in the morning only for the QD regimen. Subjects then entered an 18-day post-treatment pharmacokinetic sampling period.
Fasting EPA concentrations were measured with a validated liquid chromatography with tandem mass spectrometry (LC-MS/MS) method in plasma and RBCs prior to the morning dose (days 1, 14, 26, 28) and at serial time points (1, 3, 5, 6, 8, 10, 12, 24, 48, 72, 120, 192, 312, and 432 hours) after the morning dose on day 28. After the last dose on day 28, EPA concentrations were followed for 18 days to estimate the expected long half-life of EPA. Total plasma EPA included all EPA forms (unesterified EPA and that incorporated in phospholipids, triacylglycerols, and cholesteryl esters). In RBCs, EPA was measured in the cell membrane, where EPA is mainly incorporated in phospholipids.
For total EPA in plasma and RBCs, lipids were isolated by acid/methanol/chloroform extraction followed by centrifugation and purified by isohexane and solid-phase extraction after confirmed complete lipid hydrolysis and transmethylation (acid/methanol, 50° C. overnight). For unesterified EPA in plasma, 25 μL of an inhibitor solution (0.5 g sodium fluoride, 1.0 g L-ascorbic acid, and 0.25 g 5-methylisoxazole-3-carboxylic acid per 10 mL water) was included per 1 mL plasma sample to prevent degradation and lipids were isolated by centrifugation after methanol/chloroform extraction (without hydrolysis or methylation) and further purified by protein precipitation and solid-phase extraction. Quantitation utilized linolenic acid as an internal standard and EPA as the standard for the calibration curve; for total plasma EPA, RBC EPA, and unesterified EPA, the lower limits of quantitation were 10 μg/mL, 5 μg/mL, and 50 ng/mL, respectively. EPA concentrations were measured at Charles River Laboratories Ltd (Elphinstone Research Center, Tranent, Edinburgh, Scotland, UK).
Unless otherwise specified, all reported parameters are based on baseline-subtracted concentrations (baseline is due to EPA derived from dietary sources).

CC/C=C\C/C=C\C/C=C\C/C=C\C/C=C\CCCC(=O)OCC [IPE, all-cis eicosa-5,8,11,14,17-pentaenoic acid ethyl ester]
dose linearity of EPA exposure (dose-normalized AUC and maximum concentration) (2 g/day vs 4 g/day (Group 1 vs. Group 2), total plasma, total RBCs, unesterified EPA): Dose linearity was observed; also recorded: dose-proportional | comparison of exposure between QD and BID regimens (2 g/day, Group 1 vs. Group 3): similarity between QD and BID regimens | comparison of exposure between 1×1000-mg and 2×500-mg formulations (2 g/day, Group 1 vs. Group 4): similarity; also recorded: comparable exposures at comparable doses | Total EPA in plasma, CL/F (Group 1: IPE 2 g/d 1 × 1000 mg BID): 776.4 mL/h | Total EPA in plasma, CL/F (Group 2: IPE 4 g/d 2 × 1000 mg BID): 683.7 mL/h | Total EPA in plasma, CL/F (Group 3: IPE 2 g/d 2 × 1000 mg QD): 867.7 mL/h | Total EPA in plasma, CL/F (Group 4: IPE 2 g/d 2 × 500 mg BID): 684.5 mL/h | mean plasma CL/F of ethyl eicosapentaenoate (about 1 g orally twice per day): about 776.4+/−256.9 mL/h | mean plasma CL/F of ethyl eicosapentaenoate (about 2 g orally twice per day): about 683.7+/−280.6 mL/h | effect of age on AUC0-24hr and maximum concentration of total and unesterified plasma EPA (graphical examination): no effect of age was observed | effect of gender on EPA exposure parameters (in vivo): no consistent gender effect was observed
